Assay: Ability to form liquid crystal, water-invading method
Format: physicochemical
Conditions: polarization microscope, compared with conventional MEL, FIGS. 10 and 11
From the text: Evaluation of the ability to form liquid crystals can be made by a conventional and publicly known method. An example of the method for easily comparing the ability to form liquid crystals is a water invading method. In this method, MEL is applied on a slide glass and distilled water is dropped beside the applied area, and a liquid crystal phase formed at an interface by dropping of the distilled water is observed by a microscope. Thus, behavior of liquid crystal formation can be searched. With the method, it is possible to easily compare the conventional MEL with the MEL optical isomer of the present invention in terms of their abilities to form liquid crystals.
MEL produced by Pseudozyma tsukubaensis JCM 10324 strain obtained in Example 8 and conventional MEL produced by Pseudozyma antarctica KM-34 (FERMP-20730) strain were compared with each other by a water-invading method in terms of their abilities to form liquid crystal.

1-(6′-acetyl-2′,3′-di-O-alka(ke)noyl-β-D-mannnopyranosyl-)meso-erythritol
ability to form liquid crystal (lamella phase): has an ability to form lamella phase in a very wider concentration range than conventional MEL
